Measured values as given in the supplement of paper PMC10721915.

What was measured:
Assay in all cases: relative cell growth vs untreated control (GI, NCI-DTP normalisation with time-zero) (fraction of control growth); higher = more growth / less inhibition
Details in all cases: treatment time: 120 h
COLO205 = tested on: COLO205
Protocol: (§1)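 Cancer cell lines in 96-well plates were treated 48 h after seeding with M4076 (ATM inhibitor) and berzosertib (ATR inhibitor), alone or mixed, in 4-fold dilutions for 120 h. Protein was read by sulforhodamine B staining, background-subtracted and normalised NCI-DTP style to untreated control growth. Rows with one concentration equal to 0 are monotherapy.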

HT1080 = tested on: HT1080
Protocol: as §1

HT29 = tested on: HT29
Protocol: as §1

IGROV1 = tested on: IGROV1
Protocol: as §1

MDAMB436 = tested on: MDAMB436
Protocol: as §1

MHHES1 = tested on: MHHES1
Protocol: as §1

MV411 = tested on: MV411
Protocol: as §1

PANC1 = tested on: PANC1
Protocol: as §1

SW620 = tested on: SW620
Protocol: as §1

U2OS = tested on: U2OS
Protocol: as §1

COc1cc2ncc3c(c2cc1-c1cn(C)nc1C)n(-c1c(F)cncc1OC)c(=O)n3C [M4076] + CNCc1ccc(-c2cc(-c3nc(-c4ccc(S(=O)(=O)C(C)C)cc4)cnc3N)on2)cc1 [berzosertib]
relative cell growth
Details	COLO205	HT29	HT1080	IGROV1	MDAMB436	MHHES1	MV411	PANC1	SW620	U2OS
concentration of first compound 0.0195 µM, concentration of partner 0 M	1.18	1.3	1.1	1.27	1.1	1.19	1.23	1.27	1.08	1.1
concentration of first compound 0.0195 µM, concentration of partner 0.2 µM	0.641	0.0171	0.762	0.543	0.856	0.662	1.18	0.992	0.95	0.876
concentration of first compound 0.0781 µM, concentration of partner 0 M	1.15	1.23	0.574	1.36	1.15	1.15	1.28	1.2	1.09	1.09
concentration of first compound 0.0781 µM, concentration of partner 0.2 µM	0.668	0.0537	0.753	0.527	0.625	0.505	1.09	1.36	0.848	0.865
concentration of first compound 0.313 µM, concentration of partner 0 M	1.12	1.19	0.481	1.18	0.941	1.05	1.24	1.45	1.01	0.972
concentration of first compound 0.313 µM, concentration of partner 0.2 µM	0.373	0.00799	-0.0371	0.376	0.374	0.17	0.887	0.541	0.449	0.504
concentration of first compound 1 µM, concentration of partner 0 M	0.959	0.888	0.54	0.9	0.753	0.809	0.903	0.96	0.958	0.916
concentration of first compound 1 µM, concentration of partner 0.0195 µM	0.916	0.81	0.752	0.964	0.817	0.753	1.22	0.764	0.922	0.798
concentration of first compound 1 µM, concentration of partner 0.0781 µM	0.37	0.27	0.155	0.604	0.574	0.224	1.18	0.526	0.646	0.611
concentration of first compound 1 µM, concentration of partner 0.313 µM	0.105	-0.0312	-0.168	0.0905	0.148	0.0239	0.312	0.0924	0.168	0.191
concentration of first compound 1 µM, concentration of partner 1.25 µM	0.0405	-0.0506	-0.178	-0.0208	-0.0222	-0.0145	-0.0158	-0.0345	0.0263	-0.111
concentration of first compound 1 µM, concentration of partner 5 µM	-0.0244	-0.0437	-0.234	-0.0274	-0.02	-0.0266	-0.0221	-0.0793	-0.014	-0.131
concentration of first compound 1.25 µM, concentration of partner 0 M	1.02	1.11	0.332	1.02	0.84	0.97	1.09	1.1	0.96	0.935
concentration of first compound 1.25 µM, concentration of partner 0.2 µM	0.208	0.00308	-0.114	0.327	0.292	0.0696	0.746	0.278	0.293	0.312
concentration of first compound 5 µM, concentration of partner 0 M	0.892	0.933	0.478	0.48	0.684	0.65	0.708	0.743	0.916	0.852
concentration of first compound 5 µM, concentration of partner 0.2 µM	0.172	-0.00294	-0.101	0.0986	0.206	0.05	0.603	0.309	0.269	0.229

CNCc1ccc(-c2cc(-c3nc(-c4ccc(S(=O)(=O)C(C)C)cc4)cnc3N)on2)cc1 [berzosertib] + COc1cc2ncc3c(c2cc1-c1cn(C)nc1C)n(-c1c(F)cncc1OC)c(=O)n3C [M4076]
relative cell growth, concentration of partner 0 M
Details	COLO205	HT29	HT1080	IGROV1	MDAMB436	MHHES1	MV411	PANC1	SW620	U2OS
concentration of first compound 0.0195 µM	1.1	1.22	2.08	1.15	1.03	1.26	1.25	1.12	1.1	1.07
concentration of first compound 0.0781 µM	0.981	0.613	2.13	1.01	1.13	1.21	1.32	1.27	1.07	0.977
concentration of first compound 0.2 µM	0.622	0.113	0.626	0.468	0.673	0.599	0.778	0.892	0.795	0.906
concentration of first compound 0.313 µM	0.353	-0.0285	0.0933	0.129	0.386	0.436	0.429	0.482	0.494	0.9
concentration of first compound 1.25 µM	0.114	-0.0598	-0.162	-0.0355	0.0232	0.0564	-0.0241	0.094	0.087	0.0428
concentration of first compound 5 µM	0.00456	-0.0555	-0.228	-0.0657	-0.0352	-0.0244	-0.0294	-0.0643	-0.01	-0.0411
